# Results reported in patent US20260217767A1, “NOVEL A4B7 THIOETHER PEPTIDE DIMER ANTAGONISTS” (Protagonist Therapeutics, Inc., priority 2014, published 2026).
# *1 amine or outer side, *2 acyl side, *3 side chain or, on linkers, in order; H or OH if unused. Where a SMILES comes first, the peptide text is derived from it. Bridges are numbered along the chain shown (N, C = ends). Roman numbers before positions name the chains, in order. [ ]: non-standard residue; d: D form. Diglycolyl = O=C(COCC(=O)[*:2])[*:1]; NMeR = CN[C@@H](CCCNC(=N)N)C(=O)O; β3hE = N[C@@H](CCC(=O)O)CC(=O)O; X1 = O=C(c1ccccc1C[*:2])[*:1]; Pen = CC(C)(S)[C@H](N)C(=O)O
# Assays:
# [1] = Simulated Intestinal Fluid (SIF) Stability Assay; assay type: in vitro ADME; settings: 37° C.; for half-life: simulated gi fluid, porcine pancreatin; for half-life at 22 μM: pig, simulated intestinal fluid (SIF) with 1% porcine pancreatin, pH 6.5, porcine pancreatin
# In short: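 Percent peptide remaining over time was measured by LC-MS/MS as the peak-area ratio to internal standard, and a first-order decay fit gave half-life. Digests contained 22 μM peptide and 1% pancreatin in pH 6.5 FaSSIF buffer at 37° C. Aliquots were quenched in organic solvent with formic acid.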
# [2] = Simulated Gastric Fluid (SGF) Stability Assay; assay type: in vitro ADME; settings: pH 2, 37° C.; for half-life: simulated gi fluid, porcine pepsin; for half-life at 20 μM: pig, simulated gastric fluid (SGF) with porcine pepsin
# Procedure: Simulated Gastric Fluid (SGF) Stability Assays
# Studies were carried out in simulated gastric fluid (SGF) to evaluate intestinal stability of the peptide molecules of the instant invention. SGF was prepared by adding 20 mg NaCl, 32 mg porcine pepsin (MP Biochemicals, catalog 02102599), and 70 μl HCl to 10 ml water (final pH=2). Aliquots of SGF (0.5 ml each) were pre-warmed at 37° C. To start the reaction, 1 μl of peptide stock solution (10 mM in DMSO) was added to 0.5 ml SGF and thoroughly mixed such that the final peptide concentration was 20 μM. The reactions were incubated at 37° C. with gentle shaking. At each time point (0, 15, 30, 60 min) 50 μl aliquots were removed and added to 200 μl acetonitrile containing 0.1% formic acid to quench the reaction. Samples are stored at 4° C. until the end of the experiment and centrifuged at 10,000 rpm for 5 minutes. Aliquots of the supernatant were removed, diluted 1:1 into distilled water containing internal standard, and analyzed by LCMS/MS. Percent remaining at each timepoint was calculated based on the peak area response ratio of test to compound to internal standard. Time 0 was set to 100%, and all later timepoints were calculated relative to time 0. Half-lives were calculated by fitting to a first-order exponential decay equation using GraphPad.
# [3] = biological target: Jurkat E6.1 cells (Homo sapiens, UniProt P05556+P13612); assay: α4β1-VCAM Cell Adhesion Assay; assay type: cell-based; settings: thioether peptide dimers, Table 7; read-out: Cell Adhesion A4B1
# Chain of Jurkat E6.1 cells (P13612 34-1032): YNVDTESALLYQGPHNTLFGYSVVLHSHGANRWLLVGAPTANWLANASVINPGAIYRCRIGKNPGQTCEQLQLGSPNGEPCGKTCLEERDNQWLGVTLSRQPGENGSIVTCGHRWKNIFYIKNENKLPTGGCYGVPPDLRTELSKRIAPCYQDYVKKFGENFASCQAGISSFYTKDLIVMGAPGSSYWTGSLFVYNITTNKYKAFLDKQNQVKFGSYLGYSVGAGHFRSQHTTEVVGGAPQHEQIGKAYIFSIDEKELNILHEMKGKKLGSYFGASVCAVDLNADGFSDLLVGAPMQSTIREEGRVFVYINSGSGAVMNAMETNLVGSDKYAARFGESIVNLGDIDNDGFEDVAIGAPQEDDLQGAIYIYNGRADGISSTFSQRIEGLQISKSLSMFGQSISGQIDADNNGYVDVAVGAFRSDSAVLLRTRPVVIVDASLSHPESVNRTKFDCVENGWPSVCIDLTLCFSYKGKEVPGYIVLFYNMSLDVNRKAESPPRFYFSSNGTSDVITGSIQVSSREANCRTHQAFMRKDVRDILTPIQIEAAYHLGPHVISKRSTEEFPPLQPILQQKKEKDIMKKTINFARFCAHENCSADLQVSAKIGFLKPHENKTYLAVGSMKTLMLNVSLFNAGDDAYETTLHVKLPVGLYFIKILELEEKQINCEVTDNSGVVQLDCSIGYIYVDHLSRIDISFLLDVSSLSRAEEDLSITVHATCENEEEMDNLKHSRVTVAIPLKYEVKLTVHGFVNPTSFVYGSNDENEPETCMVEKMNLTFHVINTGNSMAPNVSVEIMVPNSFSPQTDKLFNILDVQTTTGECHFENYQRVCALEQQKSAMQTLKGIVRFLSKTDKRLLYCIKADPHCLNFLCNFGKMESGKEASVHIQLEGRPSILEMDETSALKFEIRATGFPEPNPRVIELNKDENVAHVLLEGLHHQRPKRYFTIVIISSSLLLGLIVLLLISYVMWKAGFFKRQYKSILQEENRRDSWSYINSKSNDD
# Chain of Jurkat E6.1 cells (P05556 21-798): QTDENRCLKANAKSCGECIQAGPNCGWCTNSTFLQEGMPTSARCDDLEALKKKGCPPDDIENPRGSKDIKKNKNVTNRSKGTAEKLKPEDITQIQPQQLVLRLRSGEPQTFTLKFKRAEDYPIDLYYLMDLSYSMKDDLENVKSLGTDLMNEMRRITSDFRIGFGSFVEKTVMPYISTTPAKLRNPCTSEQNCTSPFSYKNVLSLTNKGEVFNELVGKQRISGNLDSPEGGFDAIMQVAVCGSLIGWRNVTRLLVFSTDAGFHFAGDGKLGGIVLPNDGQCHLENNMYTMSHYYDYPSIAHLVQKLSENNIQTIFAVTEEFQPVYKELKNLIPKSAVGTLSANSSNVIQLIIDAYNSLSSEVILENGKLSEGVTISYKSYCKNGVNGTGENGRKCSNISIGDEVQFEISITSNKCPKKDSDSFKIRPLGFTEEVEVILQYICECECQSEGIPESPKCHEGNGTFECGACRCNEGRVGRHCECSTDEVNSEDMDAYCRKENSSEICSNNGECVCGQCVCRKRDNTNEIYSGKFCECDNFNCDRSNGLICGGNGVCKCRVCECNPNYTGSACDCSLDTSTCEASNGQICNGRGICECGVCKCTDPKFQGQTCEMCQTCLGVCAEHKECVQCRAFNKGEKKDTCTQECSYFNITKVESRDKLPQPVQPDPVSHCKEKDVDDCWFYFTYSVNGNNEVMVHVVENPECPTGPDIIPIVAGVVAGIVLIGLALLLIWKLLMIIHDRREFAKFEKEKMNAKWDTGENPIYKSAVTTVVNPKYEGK
# Procedure: α4β1-VCAM Cell Adhesion Assay
# Jurkat E6.1 cells (Sigma #88042803) were cultured in RPMI 1640 HEPES medium (Invitrogen #22400-089) supplemented with 10% serum (Fetal Bovine Serum, Invitrogen #16140-071), 1 mM sodium pyruvate (Invitrogen #11360-070), 2 mM L-glutamine (Invitrogen #25030-081) and Penicillin-Streptomycin (Invitrogen #15140-122) at 100 units of penicillin and 100 μg of streptomycin per ml. The cells were washed two times in DMEM medium (ATCC #30-2002) supplemented with 0.1% BSA, 10 mM HEPES pH 7 and 1 mM MnCl2. The cells were re-suspended in supplemented DMEM medium at a density of 4×10^6 cells/ml.
# A Nunc MaxiSorp plate was coated with rh VCAM-1/CD106 Fc chimera (R&D #862-VC) at 400 ng per well in 50 μl per well in 1×PBS and incubated at 4° C. overnight. The solution was then removed by shaking, blocked with 250 μl per well PBS containing 1% BSA, and incubated at 37° C. for 1 hr. The solution was removed by shaking. Peptides were diluted by serial dilution in a final volume of 50 μl per well (2× concentration). To each well, 50 μl of cells (200,000 cells) were added and the plate was incubated at 37° C., 5% CO2 for 30-45 min to allow cell adhesion. The wells were washed manually three times (100 μl per wash) with supplemented DMEM. After the final wash, 100 μl/well of supplemented DMEM and 10 ul/well of MTT reagent (ATTC cat #30-1010K) were added. The plate was incubated at 37° C., 5% CO2 for 2-3 hrs until a purple precipitate is visible. 100 ul of Detergent Reagent (ATTC cat #30-1010K) is added to each well. The plate was covered from the light, wrapped in Parafilm to prevent evaporation, and left overnight at room temperature in the dark. The plate was shaken for 5 min and the absorbance at 570 nm is measured. To calculate the dose response, the absorbance value of control wells not containing cells was subtracted from each test well.
# [4] = biological target: T1, α4β1 (Homo sapiens, UniProt P05556+P13612); assay: α4β1-VCAM Competition ELISA; assay type: binding; settings: thioether peptide dimers, Table 7; read-out: ELISA A4B1
# T1 construct: purchased R&D Systems 5668-A4
# T1 sequence (P13612 34-977 limits assumed): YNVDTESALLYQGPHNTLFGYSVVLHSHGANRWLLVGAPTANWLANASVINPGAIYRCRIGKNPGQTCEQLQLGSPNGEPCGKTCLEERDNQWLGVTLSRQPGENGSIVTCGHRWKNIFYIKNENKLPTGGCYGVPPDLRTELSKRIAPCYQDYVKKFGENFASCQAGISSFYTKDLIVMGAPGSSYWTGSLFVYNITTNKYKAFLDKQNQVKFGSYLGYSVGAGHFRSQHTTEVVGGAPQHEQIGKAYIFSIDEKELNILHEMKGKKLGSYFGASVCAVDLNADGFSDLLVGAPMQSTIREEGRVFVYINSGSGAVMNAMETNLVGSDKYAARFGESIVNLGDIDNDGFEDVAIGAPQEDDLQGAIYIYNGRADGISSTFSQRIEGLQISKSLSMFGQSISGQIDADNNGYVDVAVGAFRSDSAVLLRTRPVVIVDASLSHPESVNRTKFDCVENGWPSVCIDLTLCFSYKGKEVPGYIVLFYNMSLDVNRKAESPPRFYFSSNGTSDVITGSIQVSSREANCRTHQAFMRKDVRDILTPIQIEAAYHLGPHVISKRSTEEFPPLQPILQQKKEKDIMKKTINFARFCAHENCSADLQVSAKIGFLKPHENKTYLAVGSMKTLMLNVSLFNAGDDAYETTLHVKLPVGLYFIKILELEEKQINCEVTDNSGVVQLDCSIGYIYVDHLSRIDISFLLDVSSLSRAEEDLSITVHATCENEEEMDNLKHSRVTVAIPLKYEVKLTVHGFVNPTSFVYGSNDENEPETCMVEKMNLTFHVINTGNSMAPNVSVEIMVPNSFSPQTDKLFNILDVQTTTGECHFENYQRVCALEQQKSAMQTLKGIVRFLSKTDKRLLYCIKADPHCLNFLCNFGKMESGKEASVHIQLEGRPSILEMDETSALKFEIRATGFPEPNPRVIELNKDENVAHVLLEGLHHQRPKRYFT
# T1 sequence (P05556 21-728 limits assumed): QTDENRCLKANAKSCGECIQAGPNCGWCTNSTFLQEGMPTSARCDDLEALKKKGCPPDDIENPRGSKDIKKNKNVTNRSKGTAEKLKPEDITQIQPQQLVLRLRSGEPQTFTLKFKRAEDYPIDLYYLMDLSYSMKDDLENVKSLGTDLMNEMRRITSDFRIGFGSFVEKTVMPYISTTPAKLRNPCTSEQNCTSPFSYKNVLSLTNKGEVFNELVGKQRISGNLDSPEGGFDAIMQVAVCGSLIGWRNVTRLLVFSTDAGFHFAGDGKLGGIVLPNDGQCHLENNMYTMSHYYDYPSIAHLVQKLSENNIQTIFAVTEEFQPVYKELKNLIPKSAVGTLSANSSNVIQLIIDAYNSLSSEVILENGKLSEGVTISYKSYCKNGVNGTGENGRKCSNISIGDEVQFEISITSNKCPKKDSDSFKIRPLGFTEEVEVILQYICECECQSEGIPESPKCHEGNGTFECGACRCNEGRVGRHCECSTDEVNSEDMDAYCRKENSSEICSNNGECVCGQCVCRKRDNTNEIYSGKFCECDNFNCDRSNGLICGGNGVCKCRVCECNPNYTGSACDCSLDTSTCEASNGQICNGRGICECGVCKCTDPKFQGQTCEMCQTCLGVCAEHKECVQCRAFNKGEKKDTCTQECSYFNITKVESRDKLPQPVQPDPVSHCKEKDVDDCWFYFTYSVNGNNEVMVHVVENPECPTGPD
# Procedure: α4β1-VCAM Competition ELISA
# A Nunc MaxiSorp plate was coated with rh VCAM-1/CD106 Fc chimera (R&D #862-VC) at 400 ng/well in 50 ul per well in 1×PBS and incubated overnight at 4° C. The solution was removed by shaking and then blocked with 250 ul of 1% BSA in 1×PBS per well. The wells were then incubated at room temperature for 1 hr with shaking. Each well was then washed once with wash buffer (50 mM Tris-HCl pH7.6, 100 mM NaCL, 1 mM MnCl2 or MgCl2, 0.05% Tween-20). 25 ul of serial dilutions of peptides starting at 200 μM in assay buffer (Assay buffer: 50 mM Tris-HCl pH7.6, 100 mM NaCl, 1 mM MnCl2 or MgCl2, 0.05% Tween-20) was added to each well. Additionally, 25 μl of α4β1 (R&D Systems #5668-A4) was added to each well at a fixed concentration of 120 nM. The final peptide and α4β1 concentrations were 100 μM and 60 nM, respectively. The plates were then incubated at 37° C. for 2 hr. The solution was then removed by shaking and each well was washed three times with wash buffer. 50 ul of 9F10 antibody at 4 ug/ml (purified mouse anti-human CD49d, BD Bioscience Cat #555502) was then added to each well, and the plate was incubated at room temperature for Ihr with shaking. The solution was again removed by shaking, and each well was washed three times with wash buffer. 50 μl of peroxidase-conjugated AffiniPure Goat anti-mouse IgG (Jackson immune research cat #115-035-003) diluted in 1:5000 in assay buffer was added to each well. The plate was incubated at room temperature for 30 min with shaking. Each well was then washed 3 times with wash buffer. 100 ul of TMB was then added to each well and closely observe during developing time. The reaction was stepped with 2N H2SO4 and absorbance was read at 450 nm.
smiles,measurement,setting,value
"CC(C)C[C@@H]1NC(=O)[C@H]([C@@H](C)O)NC(=O)[C@H](CC(=O)O)NC(=O)[C@H](CO)NC(=O)[C@H](CCCNC(=N)N)N(C)C(=O)c2ccccc2CSC(C)(C)[C@@H](C(=O)N[C@@H](Cc2c[nH]c3ccccc23)C(=O)N[C@H](CCC(=O)O)C(N)=O)NC1=O [compound 97] (HELM PEPTIDE1{[meR].S.D.T.L.[Pen].W.[dE].[am]}|CHEM1{[O=C(c1ccccc1C[*:2])[*:1]]}$PEPTIDE1,CHEM1,1:R1-1:R1|PEPTIDE1,CHEM1,6:R3-1:R2$$$V2.0)",half-life,"[1]; monomers, Table 6",> 3 h
same,half-life,"[2]; monomers, Table 6",> 3 h
"CC(C)C[C@@H]1NC(=O)[C@H]([C@@H](C)O)NC(=O)[C@H](CC(=O)O)NC(=O)[C@H](CO)NC(=O)[C@H](CCCNC(=N)N)N(C)C(=O)c2ccccc2CSC(C)(C)[C@@H](C(=O)N[C@@H](Cc2c[nH]c3ccccc23)C(=O)N[C@H](CCC(=O)O)C(=O)N[C@H](CCCCN)C(N)=O)NC1=O [compound 150] (HELM PEPTIDE1{[meR].S.D.T.L.[Pen].W.[dE].[dK].[am]}|CHEM1{[O=C(c1ccccc1C[*:2])[*:1]]}$PEPTIDE1,CHEM1,1:R1-1:R1|PEPTIDE1,CHEM1,6:R3-1:R2$$$V2.0)",half-life,"[1]; dimers, Table 7",> 3 h
same,half-life,"[2]; dimers, Table 7",> 3 h
"CC(C)C[C@@H]1NC(=O)[C@H]([C@@H](C)O)NC(=O)[C@H](CC(=O)O)NC(=O)[C@H](CO)NC(=O)[C@H](CCCNC(=N)N)N(C)C(=O)c2ccccc2CSC(C)(C)[C@@H](C(=O)N[C@@H](Cc2c[nH]c3ccccc23)C(=O)N[C@@H](CCC(=O)O)C(=O)N(C)[C@H](CCCCN)C(N)=O)NC1=O [compound 152] (HELM PEPTIDE1{[meR].S.D.T.L.[Pen].W.E.[CN([C@H](CCCCN)C(=O)[*:2])[*:1]].[am]}|CHEM1{[O=C(c1ccccc1C[*:2])[*:1]]}$PEPTIDE1,CHEM1,1:R1-1:R1|PEPTIDE1,CHEM1,6:R3-1:R2$$$V2.0)",IC50,[3],> 100 µM
same,half-life at 22 μM,"[1]; dimers, Table 7",> 3 h
same,IC50,[4],0.025 to 0.1 µM
same,half-life at 20 μM,"[2]; dimers, Table 7",> 1 h
"CC(C)C[C@@H]1NC(=O)[C@H]([C@@H](C)O)NC(=O)[C@H](CC(=O)O)NC(=O)[C@H](CO)NC(=O)[C@H](CCCNC(=N)N)N(C)C(=O)c2ccccc2CSC(C)(C)[C@@H](C(=O)N[C@@H](Cc2ccccc2)C(=O)N[C@@H](CCC(=O)O)CC(=O)N[C@H](CCCCN)C(N)=O)NC1=O [compound 164] (HELM PEPTIDE1{[meR].S.D.T.L.[Pen].F.[O=C(O)CC[C@@H](CC(=O)[*:2])N[*:1]].[dK].[am]}|CHEM1{[O=C(c1ccccc1C[*:2])[*:1]]}$PEPTIDE1,CHEM1,1:R1-1:R1|PEPTIDE1,CHEM1,6:R3-1:R2$$$V2.0)",IC50,[3],> 100 µM
same,half-life at 22 μM,"[1]; dimers, Table 7",> 3 h
same,IC50,[4],0.025 to 0.1 µM
same,half-life at 20 μM,"[2]; dimers, Table 7",> 1 h
"CC(C)C[C@@H]1NC(=O)[C@H]([C@@H](C)O)NC(=O)[C@H](CC(=O)O)NC(=O)[C@H](CO)NC(=O)[C@H](CCCNC(=N)N)N(C)C(=O)c2ccccc2CSC(C)(C)[C@@H](C(=O)N[C@@H](Cc2ccc(O)cc2)C(=O)N[C@@H](CCC(=O)O)CC(=O)N[C@H](CCCCNC(=O)COCC(=O)NCCCC[C@@H](NC(=O)C[C@H](CCC(=O)O)NC(=O)[C@H](Cc2ccc(O)cc2)NC(=O)[C@H]2NC(=O)[C@H](CC(C)C)NC(=O)[C@H]([C@@H](C)O)NC(=O)[C@H](CC(=O)O)NC(=O)[C@H](CO)NC(=O)[C@H](CCCNC(=N)N)N(C)C(=O)c3ccccc3CSC2(C)C)C(N)=O)C(N)=O)NC1=O [compound 165] (I: [NMeR]SDTL[Pen]Y[β3hE][dK]-NH2 / II: [NMeR]SDTL[Pen]Y[β3hE][dK]-NH2; linker I:9-II:9 via Diglycolyl; linker I:N-I:6, II:N-II:6 via X1)",half-life at 22 μM,"[1]; dimers, Table 7",> 3 h
same,half-life at 20 μM,"[2]; dimers, Table 7",> 1 h
"CC(C)C[C@@H]1NC(=O)[C@H]([C@@H](C)O)NC(=O)[C@H](CC(=O)O)NC(=O)[C@H](CO)NC(=O)[C@H](CCCNC(=N)N)N(C)C(=O)c2ccccc2CSC(C)(C)[C@@H](C(=O)N[C@@H](Cc2ccc(O)cc2)C(=O)N[C@H](CCC(=O)O)C(=O)N[C@H](CCCCN)C(N)=O)NC1=O [compound 169] (HELM PEPTIDE1{[meR].S.D.T.L.[Pen].Y.[dE].[dK].[am]}|CHEM1{[O=C(c1ccccc1C[*:2])[*:1]]}$PEPTIDE1,CHEM1,1:R1-1:R1|PEPTIDE1,CHEM1,6:R3-1:R2$$$V2.0)",IC50,[3],> 100 µM
same,half-life at 22 μM,"[1]; dimers, Table 7",> 3 h
same,IC50,[4],0.1 to 1 µM
same,half-life at 20 μM,"[2]; dimers, Table 7",> 3 h
